Earlier results in patent US20110301202A1, “SPLA2 INHIBITOR CONJUGATE COMPOUNDS AND METHODS OF USE” (priority 2010, published 2011).

Experiments:
[1] = following administration
[2] = once- or twice-daily, stable CVD population, also diabetic and high baseline LDL-C subpopulations

CCc1c(C(=O)C(N)=O)c2c(OCC(=O)OC)cccc2n1Cc1ccccc1 [A-002, [[3-(2-Amino-1,2-dioxoethyl)-2-ethyl-1-(phenylmethyl)-1H-indol-4-yl]oxy]acetic acid methyl ester]
absorption and hydrolysis of prodrug to A-001 [1]: rapidly absorbed and hydrolyzed to A-001
lipid levels (humans): decreases
LDL-C [2]: decreases
inflammatory marker levels [2]: decreases
small LDL-C particle levels [2]: decreases
total LDL-C particle levels [2]: decreases
total cholesterol [2]: decreases
